What was measured:
[1] = molecular target: T1, 5-hydroxytryptamine receptor 2B (Homo sapiens, UniProt P41595); assay type: functional, cell-based
Endothelin-1 receptor = molecular target: T2, Endothelin-1 receptor (Homo sapiens, UniProt P25101)
T2 sequence (P25101 whole entry): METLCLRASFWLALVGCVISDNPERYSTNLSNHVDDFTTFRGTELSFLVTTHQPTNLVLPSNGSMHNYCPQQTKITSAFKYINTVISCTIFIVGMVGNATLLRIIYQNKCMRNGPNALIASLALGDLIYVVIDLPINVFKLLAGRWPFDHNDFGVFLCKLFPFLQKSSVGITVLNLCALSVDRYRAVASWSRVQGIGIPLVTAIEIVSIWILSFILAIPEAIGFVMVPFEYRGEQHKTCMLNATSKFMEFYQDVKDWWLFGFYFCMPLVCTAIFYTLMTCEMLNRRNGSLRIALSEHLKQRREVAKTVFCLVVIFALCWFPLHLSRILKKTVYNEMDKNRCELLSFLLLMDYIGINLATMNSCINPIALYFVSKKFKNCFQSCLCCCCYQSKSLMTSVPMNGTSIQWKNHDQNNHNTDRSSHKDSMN

[2] = molecular target: Kappa-type opioid receptor (Homo sapiens, UniProt P41145)
Chain of Kappa-type opioid receptor (P41145 whole entry): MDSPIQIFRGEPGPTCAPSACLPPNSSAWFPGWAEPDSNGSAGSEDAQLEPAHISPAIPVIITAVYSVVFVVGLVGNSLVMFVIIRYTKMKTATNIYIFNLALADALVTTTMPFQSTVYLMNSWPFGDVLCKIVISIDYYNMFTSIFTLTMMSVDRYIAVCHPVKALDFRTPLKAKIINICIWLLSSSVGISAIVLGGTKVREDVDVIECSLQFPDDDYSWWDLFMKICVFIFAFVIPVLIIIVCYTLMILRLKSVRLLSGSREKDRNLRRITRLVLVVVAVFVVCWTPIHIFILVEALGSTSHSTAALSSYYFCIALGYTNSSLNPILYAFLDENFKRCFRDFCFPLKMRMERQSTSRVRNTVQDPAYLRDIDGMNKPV

[3] = molecular target: T3, Cholecystokinin receptor type A (Homo sapiens, UniProt P32238)
T3 sequence (P32238 whole entry): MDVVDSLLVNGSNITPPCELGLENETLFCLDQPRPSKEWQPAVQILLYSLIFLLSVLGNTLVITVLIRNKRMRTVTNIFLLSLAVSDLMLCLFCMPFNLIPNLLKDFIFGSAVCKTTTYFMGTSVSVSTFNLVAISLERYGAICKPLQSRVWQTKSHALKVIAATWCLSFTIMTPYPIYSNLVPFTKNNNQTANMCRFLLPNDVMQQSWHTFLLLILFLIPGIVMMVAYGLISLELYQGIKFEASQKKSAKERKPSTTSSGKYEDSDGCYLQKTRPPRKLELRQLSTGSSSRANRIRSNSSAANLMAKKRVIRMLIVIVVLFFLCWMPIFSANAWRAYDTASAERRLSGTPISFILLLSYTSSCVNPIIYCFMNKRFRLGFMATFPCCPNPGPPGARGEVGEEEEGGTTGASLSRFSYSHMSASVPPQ

[4] = molecular target: Sodium-dependent serotonin transporter (Homo sapiens, UniProt P31645)
Chain of Sodium-dependent serotonin transporter (P31645 whole entry): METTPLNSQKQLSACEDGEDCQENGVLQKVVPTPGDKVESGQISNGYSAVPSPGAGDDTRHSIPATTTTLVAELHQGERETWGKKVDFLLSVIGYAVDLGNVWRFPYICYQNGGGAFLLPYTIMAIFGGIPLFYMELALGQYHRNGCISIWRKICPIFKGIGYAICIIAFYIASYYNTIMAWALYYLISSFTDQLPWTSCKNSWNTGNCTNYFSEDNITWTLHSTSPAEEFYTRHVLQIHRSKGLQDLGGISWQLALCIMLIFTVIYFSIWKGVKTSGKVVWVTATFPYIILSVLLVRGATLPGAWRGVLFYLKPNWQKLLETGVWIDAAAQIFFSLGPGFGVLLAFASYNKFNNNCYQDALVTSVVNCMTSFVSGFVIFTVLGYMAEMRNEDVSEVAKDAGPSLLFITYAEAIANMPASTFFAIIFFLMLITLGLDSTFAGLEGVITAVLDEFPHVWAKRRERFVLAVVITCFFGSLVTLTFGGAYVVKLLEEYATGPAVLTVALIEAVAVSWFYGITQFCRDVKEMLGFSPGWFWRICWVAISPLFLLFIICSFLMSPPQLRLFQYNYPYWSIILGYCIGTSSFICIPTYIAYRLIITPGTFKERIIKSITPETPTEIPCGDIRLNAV

[5] = molecular target: T4, Muscarinic acetylcholine receptor M2 (Homo sapiens, UniProt P08172); assay type: functional, cell-based
T4 sequence (P08172 whole entry): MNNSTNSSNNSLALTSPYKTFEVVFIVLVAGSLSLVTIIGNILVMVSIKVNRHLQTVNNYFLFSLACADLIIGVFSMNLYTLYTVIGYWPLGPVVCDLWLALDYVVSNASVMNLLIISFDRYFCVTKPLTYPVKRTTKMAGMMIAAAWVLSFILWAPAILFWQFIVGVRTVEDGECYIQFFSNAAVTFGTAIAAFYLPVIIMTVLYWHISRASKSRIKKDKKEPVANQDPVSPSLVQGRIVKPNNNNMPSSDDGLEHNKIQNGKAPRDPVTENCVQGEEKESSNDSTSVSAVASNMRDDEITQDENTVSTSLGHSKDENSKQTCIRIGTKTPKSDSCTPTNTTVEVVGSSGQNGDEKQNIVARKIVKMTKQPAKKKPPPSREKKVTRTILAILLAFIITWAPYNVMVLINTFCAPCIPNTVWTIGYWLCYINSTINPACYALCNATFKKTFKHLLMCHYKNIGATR

[6] = molecular target: T5, Neuropeptide Y receptor type 1 (Homo sapiens, UniProt P25929)
T5 sequence (P25929 whole entry): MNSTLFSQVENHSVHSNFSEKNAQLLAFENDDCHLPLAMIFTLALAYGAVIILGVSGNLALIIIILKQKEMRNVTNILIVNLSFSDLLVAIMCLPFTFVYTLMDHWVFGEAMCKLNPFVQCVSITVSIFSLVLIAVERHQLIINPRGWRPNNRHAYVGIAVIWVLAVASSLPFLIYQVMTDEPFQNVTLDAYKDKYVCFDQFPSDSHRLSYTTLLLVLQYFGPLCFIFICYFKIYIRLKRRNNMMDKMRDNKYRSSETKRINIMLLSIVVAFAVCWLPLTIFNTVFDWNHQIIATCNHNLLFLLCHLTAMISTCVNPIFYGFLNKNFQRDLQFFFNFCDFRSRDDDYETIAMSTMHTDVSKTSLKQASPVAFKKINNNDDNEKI

[7] = molecular target: T1, 5-hydroxytryptamine receptor 2B; assay type: functional, cell-based; remark: listed apart in the source
[8] = molecular target: Growth hormone secretagogue receptor type 1 (Homo sapiens, UniProt Q92847)
Chain of Growth hormone secretagogue receptor type 1 (Q92847 whole entry): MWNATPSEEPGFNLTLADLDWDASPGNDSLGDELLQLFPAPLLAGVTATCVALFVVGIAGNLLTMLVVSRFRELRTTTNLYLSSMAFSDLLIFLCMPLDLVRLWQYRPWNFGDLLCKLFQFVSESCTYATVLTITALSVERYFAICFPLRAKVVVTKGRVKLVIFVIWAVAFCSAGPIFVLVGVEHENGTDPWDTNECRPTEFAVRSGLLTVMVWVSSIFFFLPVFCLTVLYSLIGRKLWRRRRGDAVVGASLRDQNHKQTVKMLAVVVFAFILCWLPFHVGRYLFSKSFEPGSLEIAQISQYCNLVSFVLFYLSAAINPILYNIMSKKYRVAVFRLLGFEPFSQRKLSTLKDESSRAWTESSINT

Histamine H1 receptor = Histamine H1 receptor (Homo sapiens, UniProt P35367)
Chain of Histamine H1 receptor (P35367 whole entry): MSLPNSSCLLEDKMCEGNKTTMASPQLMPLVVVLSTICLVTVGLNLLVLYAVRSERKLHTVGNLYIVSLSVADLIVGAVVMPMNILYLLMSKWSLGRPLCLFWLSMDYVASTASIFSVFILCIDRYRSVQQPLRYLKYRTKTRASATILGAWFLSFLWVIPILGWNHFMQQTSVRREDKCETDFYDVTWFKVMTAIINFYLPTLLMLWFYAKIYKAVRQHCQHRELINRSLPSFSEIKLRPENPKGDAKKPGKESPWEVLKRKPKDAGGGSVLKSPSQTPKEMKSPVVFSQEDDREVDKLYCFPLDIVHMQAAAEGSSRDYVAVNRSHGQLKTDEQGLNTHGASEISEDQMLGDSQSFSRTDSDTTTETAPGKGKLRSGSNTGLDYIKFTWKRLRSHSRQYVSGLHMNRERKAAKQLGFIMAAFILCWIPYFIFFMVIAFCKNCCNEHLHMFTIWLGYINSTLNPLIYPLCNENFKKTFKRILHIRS

[9] = molecular target: Gamma-aminobutyric acid receptor subunit alpha-1 (Rattus norvegicus, UniProt P62813)
Chain of Gamma-aminobutyric acid receptor subunit alpha-1 (P62813 whole entry): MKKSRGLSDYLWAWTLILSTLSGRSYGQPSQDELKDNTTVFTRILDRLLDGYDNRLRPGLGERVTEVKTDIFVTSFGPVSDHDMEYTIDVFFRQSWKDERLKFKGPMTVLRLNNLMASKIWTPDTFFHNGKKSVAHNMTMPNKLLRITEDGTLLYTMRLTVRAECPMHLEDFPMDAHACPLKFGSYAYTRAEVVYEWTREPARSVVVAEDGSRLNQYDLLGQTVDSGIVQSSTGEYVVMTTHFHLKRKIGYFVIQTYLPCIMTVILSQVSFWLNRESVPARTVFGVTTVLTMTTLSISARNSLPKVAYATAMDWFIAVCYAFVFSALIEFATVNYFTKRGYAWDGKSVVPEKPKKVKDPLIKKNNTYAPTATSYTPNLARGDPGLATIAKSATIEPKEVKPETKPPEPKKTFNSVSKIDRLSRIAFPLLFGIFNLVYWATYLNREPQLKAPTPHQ

Thromboxane A2 receptor = molecular target: T6, Thromboxane A2 receptor (Homo sapiens, UniProt P21731)
T6 sequence (P21731 whole entry): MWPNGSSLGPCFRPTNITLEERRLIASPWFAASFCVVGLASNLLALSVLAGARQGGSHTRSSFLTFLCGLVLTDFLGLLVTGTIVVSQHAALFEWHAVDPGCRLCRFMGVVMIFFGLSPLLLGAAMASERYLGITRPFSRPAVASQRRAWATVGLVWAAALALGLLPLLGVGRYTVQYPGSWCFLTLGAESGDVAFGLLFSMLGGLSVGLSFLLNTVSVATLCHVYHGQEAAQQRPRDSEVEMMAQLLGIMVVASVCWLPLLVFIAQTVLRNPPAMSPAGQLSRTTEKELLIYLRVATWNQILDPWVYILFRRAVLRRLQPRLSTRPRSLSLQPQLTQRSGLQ
Further: assay procedure not described here.

T1 sequence (P41595 whole entry): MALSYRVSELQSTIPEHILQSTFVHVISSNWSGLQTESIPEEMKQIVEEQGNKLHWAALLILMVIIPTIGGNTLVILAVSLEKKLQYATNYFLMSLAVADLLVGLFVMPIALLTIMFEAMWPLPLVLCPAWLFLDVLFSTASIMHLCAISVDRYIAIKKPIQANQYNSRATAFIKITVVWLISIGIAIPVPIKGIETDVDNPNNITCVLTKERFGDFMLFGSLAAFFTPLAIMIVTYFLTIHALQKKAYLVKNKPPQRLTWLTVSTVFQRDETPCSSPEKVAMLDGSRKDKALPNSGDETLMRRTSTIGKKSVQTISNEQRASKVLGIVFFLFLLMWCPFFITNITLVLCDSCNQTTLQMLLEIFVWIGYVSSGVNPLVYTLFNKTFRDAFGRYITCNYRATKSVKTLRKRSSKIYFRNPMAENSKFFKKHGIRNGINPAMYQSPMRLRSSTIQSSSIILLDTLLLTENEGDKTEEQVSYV

SMILES	AC50 [1] [µM]	AC50 (Endothelin-1 receptor) [µM]	AC50 [2] [µM]	AC50 [3] [µM]	AC50 [4] [µM]	AC50 [5] [µM]	AC50 [6] [µM]	AC50 [7] [µM]	AC50 [8] [µM]	AC50 (Histamine H1 receptor) [µM]	AC50 [9] [µM]	AC50 (Thromboxane A2 receptor) [µM]
CCCCC1(CC)C(=O)NC(=O)NC1=O [BUTETHAL]	> 30	> 30	> 30	> 30	> 30	> 30	> 30	> 30	> 30	> 30	–	–
C=CC1=C(C(=O)O)N2C(=O)[C@@H](NC(=O)/C(=N\OCC(=O)O)c3csc(N)n3)[C@H]2SC1 [CEFIXIME]	–	> 30	–	> 30	> 30	> 30	> 30	> 30	> 30	> 30	–	–
CO[C@@]1(NC(=O)Cc2cccs2)C(=O)N2C(C(=O)O)=C(COC(N)=O)CS[C@@H]21 [CEFOXITIN]	> 30	> 30	> 30	> 30	> 30	> 30	> 30	> 30	> 30	> 30	> 10	–
CCN(CC)CCOC(=O)c1ccc(N)cc1Cl [CHLOROPROCAINE]	> 30	> 30	> 30	> 30	> 30	29	> 30	> 30	> 30	> 30	–	–
O=C(O)c1ccccc1OP(=O)(O)O [FOSFOSAL]	> 30	> 30	> 30	> 30	> 30	> 30	> 30	> 30	> 30	> 30	–	–
CCCC[C@H](C)C[C@H](O)/C=C/[C@H]1[C@H](O)CC(=O)[C@@H]1CCCC/C=C/C(=O)O [LIMAPROST]	> 30	> 30	> 30	> 30	> 30	> 30	> 30	> 30	> 30	> 30	> 30	–
Cc1ccc(NC(=O)C2(c3ccc4c(c3)OC(F)(F)O4)CC2)nc1-c1cccc(C(=O)O)c1 [LUMACAFTOR]	> 30	> 30	> 30	> 30	> 30	> 30	> 30	> 30	> 30	> 30	> 30	–
CCOC(=O)Nc1ccc2c(c1)N(C(=O)CCN1CCOCC1)c1ccccc1S2 [MORICIZINE]	> 30	> 30	> 30	> 30	> 30	> 30	> 30	> 30	> 30	> 30	> 30	–
Cc1ccc2c(-c3ccccc3)nc(=O)n(C(C)C)c2c1 [PROQUAZONE]	–	> 30	> 30	> 30	> 30	> 30	> 30	> 30	> 30	> 30	> 30	11
Cc1cc2nc3c(=O)[nH]c(=O)nc-3n(C[C@H](O)[C@H](O)[C@H](O)COP(=O)(O)O)c2cc1C [RIBOFLAVIN 5'-PHOSPHATE]	–	> 30	> 30	> 30	> 30	–	> 30	–	> 30	> 30	> 30	> 30
CN1CCN(c2c(F)cc3c(=O)c(C(=O)O)cn4c3c2SCC4)CC1 [RUFLOXACIN]	–	> 30	> 30	> 30	> 30	> 30	> 30	> 30	> 30	> 30	> 30	> 30

Source: ChEMBL document CHEMBL5291721, “A preclinical secondary pharmacology resource illuminates target-adverse drug reaction associations of marketed drugs” (Nat Commun, 2023)
